Measurements: the METLIN SMRT retention time set (Domingo-Almenara et al. 2019)

Test: gradient 5% acetonitrile 3 min, to 50% in 2 min, to 85% in 15 min, held 3 min, 100 µL/min
Settings: column: Zorbax Extend-C18 2.1 x 50 mm; eluents: water / acetonitrile, 0.1% formic acid
In short: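 Retention times come from adduct peaks that were picked computationally and then checked by hand. The standards, pure and pooled in mixtures of ~100 molecules, were run on a Zorbax Extend-C18 column (2.1 × 50 mm, 1.8 μm) at 100 μL/min with water and acetonitrile, each with 0.1% formic acid. Detection was by quadrupole time-of-flight mass spectrometry in positive and negative ionization mode, with a dead volume of 40 μL and a dwell volume of 900 μL.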

RP-LC retention time [s] | Compound
713 | CCCC(NC(=O)CCc1ccc(OC)cc1)C(=O)Nc1nc2ccccc2[nH]1 (centres undefined)
686 | Cn1c(N2CCN(C(=O)c3ccc(F)c(Cl)c3)CC2)cc(=O)n(C)c1=O
1000 | COc1ccc(-c2ncc3c(n2)CCN(C(=O)c2ccc(Br)cc2)C3)cc1
761 | CCOC(=O)c1cccc(NC(=O)Cc2csc3nc(-c4ccc(OC)c(OC)c4)cn23)c1
734 | Cc1ccc(-c2cn3c(CC(=O)NCCc4ccc(Cl)cc4)csc3n2)cc1C
760 | Cc1cc(C2CCCN2C(=O)CCc2ccccc2)no1 (centres undefined)
1020 | CCCCOC(=O)c1[nH]c2c(c1C)C(=O)CC(c1cc(OC)c(OC)c(OC)c1)C2 (centres undefined)
814 | Fc1cc(F)cc(-c2nnc(Cc3nc(-c4ccccn4)no3)o2)c1
934 | Cc1cc(F)ccc1NC(=O)Cn1c(C)cc(-c2nnc(C3CCC3)o2)c1C
735 | COc1ccc(CC(=O)Nc2ccc(-c3nc(C)no3)cc2)cc1OC
777 | COC(=O)c1cccc(Nc2ncccc2S(N)(=O)=O)c1
874 | CC1CCN(S(=O)(=O)c2ccc3c(c2)CCCC(=O)N3CC(=O)NC2CCCC2)CC1
1020 | CCCCC(C)C(=O)N1CCCN(C2=NS(=O)(=O)C(c3ccc(CC)cc3)=C2C)CC1 (centres undefined)
1250 | Cc1cc(C)c(S(=O)(=O)N2CCCCC2C(=O)N2CCN(c3ccccc3F)CC2)c(C)c1 (centres undefined)
791 | COC(=O)c1cc(OCC(=O)NC2CCCCC2)c2cc(OC)ccc2n1
800 | CN1c2cc(F)ccc2C(=O)NC12CCN(C(=O)c1cccc(Cl)c1)CC2
692 | O=C(NCCn1nc(-c2ccc(F)cc2)ccc1=O)Nc1cccs1
722 | CCC1(C(=O)Nc2cc(OC)ccc2OC)CCCCC(=O)N1 (centres undefined)
647 | Cc1cn(C)nc1C(=O)Nc1nnc(-c2cccs2)o1
812 | O=C(NC1CCCCCC1)C1CC(=O)N(CCc2c[nH]c3ccc(F)cc23)C1 (centres undefined)
741 | O=c1n(CC2CC2)nc2n1CCN(S(=O)(=O)Cc1ccccc1)CC2
580 | CCOC(=O)c1[nH]c(C)c(CCC(=O)N2CCC(C(=O)NCCCN3CCOCC3)CC2)c1C
617 | O=C(NCC1CCCO1)c1ccc(NC(=O)C2CCC2)cc1N1CCCCC1 (centres undefined)
923 | O=C(c1ccc2c(c1)CCC(=O)N2Cc1ccccc1)N1CCN(c2ccc(F)cc2)CC1
807 | Cn1nc(-c2ccccc2)nc1C1CN(C(=O)Nc2ccccc2C(F)(F)F)C1
646 | CCn1nc(C)c(CCNC(=O)Nc2ccccc2C(=O)OC)c1C
826 | COc1ccc(CCC(=O)N2CCC(C(=O)NCCc3csc(-c4cccs4)n3)CC2)cc1
628 | Cn1nc(-c2nc(C3CC3)no2)c2c1CCN(C(=O)c1ccncc1)C2
650 | CC(C)CC(C(=O)N1CCN(c2ccccn2)CC1)N1Cc2ccccc2C1=O (centres undefined)

Second part, the molecule before the results:

Compound | RP-LC retention time [s]
COc1cc2nccc(Oc3ccc(NC(=O)C4(C(=O)Nc5ccc(F)cc5)CC4)cc3)c2cc1OC | 833
Cc1cc2nc(C(=O)Nc3ccc(C#N)cc3)cc(C)n2n1 | 890
COC(=O)c1c(N)n(CCc2ccccc2)c2nc3ccccc3nc12 | 711
CCc1nnc2ccc(NC(=O)Nc3cccc(C)c3)cn12 | 719
CCOc1ccc(N2C(=O)C3N=NN(Cc4nc(-c5ccccc5C)no4)C3C2=O)cc1 (centres undefined) | 1040
COc1ccc(Cc2nc3ccc(C(=O)NCc4ccc(C)o4)cc3o2)cc1 | 918
Cc1cc(F)ccc1NC(=O)Cn1nc2cc(-c3ccccc3)nc(C)n2c1=O | 909
COCCNC(=O)CN1c2ccccc2NC2=C(C(=O)CC(C)(C)C2)C1c1ccccc1OC (centres undefined) | 756
Cc1ccc2[nH]cc(CCNC(=O)CC3CCN(C(=O)C4CCCCC4)CC3)c2c1 | 850
COC(=O)c1ccc(-c2nc3cnccn3c2Nc2cccc(Cl)c2C)cc1 | 988
COC(=O)c1c(-c2cccc(Cl)c2)noc1NCc1ccco1 | 1060
CCN(Cc1ccncc1)C1CN(C(=O)NCc2ccc(C)cc2)C1 | 591
CCn1c(CCc2ccccc2NS(=O)(=O)c2ccc3c(c2)OCCO3)nc2ccccc21 | 717
Cc1nc2cc(NC(=O)c3csc(Nc4ncccn4)n3)ccc2s1 | 706
Cn1cc(CN2C[C@@H](CO)[C@H](NC(=O)C3CCC3)C2)c2ccccc21 | 615
CCCN1CCN(C(=O)Cn2nc(C)c3sc(CC)nc3c2=O)CC1 | 577
CCCn1c(C(=O)NN2CCCC2=O)cc2c(=O)n(C)c(=O)n(C)c21 | 592
O=C(NC1CCCCCC1)C1=C2CCCN2c2ccc(F)cc2S1(=O)=O | 970
O=C(NCC1CN(c2ccccc2)C(=O)O1)Nc1ccccc1Cl (centres undefined) | 776
CCCN1C(=O)c2cc(C(=O)NCc3ccc(N(C)C)cc3)nn2CC1(C)C(=O)NC1CCCC1 (centres undefined) | 655

Compound | RP-LC retention time [s]
CCC(CC)C(=O)Nc1nc(-c2ccccc2)c(-c2ccccc2)o1 | 1040
Cc1cc2nn(CC(=O)Nc3ccccc3)c(=O)n2c(-c2ccc(F)cc2)n1 | 800
Cc1nc(-c2ccc(N3CCN(C(=O)Nc4ccc(F)cc4)CC3)cc2)no1 | 787
CC(=O)N1CCc2cc(C)c(S(=O)(=O)N3CCOCC3)cc21 | 708
COc1ccc(-c2nc3cnccn3c2Nc2cccc(Cl)c2C)cc1 | 965
COc1cccc(S(=O)(=O)N2CCC3(CC2)C(OC)CN3c2cccc(F)c2)c1 (centres undefined) | 1160
O=C(Cn1c(=O)c(CCC(=O)NC2CC2)nc2ccccc21)NCc1ccccc1Br | 736
Cn1nc(-c2nnc(-c3ccccc3)o2)c2c1CCN(S(=O)(=O)c1cccc(C(F)(F)F)c1)C2 | 981
Cc1nn(-c2ccc(-c3ccccc3)nn2)c(C)c1S(=O)(=O)N(C)Cc1ccccc1 | 1190
Cc1cccc(C)c1OCC(=O)Nc1nc(-c2ccccc2)cs1 | 1180
CNc1nc(SC)n(C)c(=O)c1N=O | 667
CC(=O)N1CCc2cc(N3CC(C(=O)NCc4ccc(F)cc4F)CC3=O)ccc21 (centres undefined) | 692
O=C(Cc1cccc(C(F)(F)F)c1)Nc1cnn(-c2ncc(N3CCCC3)cn2)c1 | 907
Cc1nnc(-c2ccc3ccn(CC(=O)NCc4ccccc4Cl)c3c2)o1 | 779
CN1C(=O)c2cc(C(=O)NCc3cccc(F)c3)nn2CC1(C)C(=O)NCc1ccc(F)cc1 (centres undefined) | 760
COc1ccc(-c2nc3cc(C)ccn3c2Nc2ccc3c(c2)OCCO3)cc1 | 714
CC(C)n1c(N2CCCN(C(=O)c3ccco3)CC2)cc(=O)n(C(C)C)c1=O | 756
O=C(CC1CCNCC1)N1CCC(CCOc2cccnc2)CC1 | 544
CCc1noc(-c2cnc3nc(C)ccc3c2Nc2cccc(OC)c2)n1 | 778
O=C(O)Cn1c(C(=O)Nc2nc(-c3ccccc3Cl)cs2)cc2ccccc21 | 1130

Compound | RP-LC retention time [s]
O=C(NC1CCN(c2cc(-c3ccc(F)cc3)[nH]n2)C1)c1cccc(Cl)c1 (centres undefined) | 774
CCOCCCNC(=O)N1c2ccccc2CC1c1nc(C(C)C)no1 (centres undefined) | 901
Cc1ccc(CS(=O)Cc2ccc(C(=O)N3CCN(c4ccccn4)CC3)o2)cc1 (centres undefined) | 619
CC(C)Cc1cc(-c2nn3c(-c4cccc(Cl)c4)nnc3s2)n[nH]1 | 1080
COc1ccc(S(=O)(=O)N2CC3CN(C(=O)C4CCOC4)CC(C2)O3)cc1 (centres undefined) | 659
O=C(Cn1cccc(-c2nc(-c3ccc(F)cc3)no2)c1=O)NCc1ccccc1Br | 898
Cc1c(-c2ccc(Cl)cc2)noc1C1CCN(CCc2ccccc2)CC1 | 922
CC(C)n1cnc2ccc(-c3noc(-c4cccc(C#N)c4)n3)cc21 | 761
CCc1nc2cc3c(cc2n1CC(=O)Nc1cccc(OC)c1)OCCO3 | 660
COC(=O)c1ccccc1NC(=O)c1noc2c1CCC2 | 1110
Cc1ccc(CNC(=O)Cn2nc(C(=O)N3CCOCC3)c3ccccc32)cc1 | 753
O=C(CSC1CCCC1)NCCCC(=O)Nc1cccc2cccnc12 | 781
Cc1cc(C)cc(C(=O)N2CCc3[nH]nc(C(=O)N(C)C)c3C2)c1 | 655
CC(=O)N1CCCC1c1nc2ccccc2n1CC(=O)N1CCC(C)CC1 (centres undefined) | 567
O=C(Nc1c(-c2ccccc2)nc2ccccn12)c1c(F)cccc1F | 630
Cn1nc(CNC(=O)c2ccc(Br)o2)c2ccccc21 | 795
COc1ccc(C(C)NC(=O)C2CCN(c3cncnc3N3CCCCC3)CC2)cc1 (centres undefined) | 685
O=C(c1ccc(C(F)(F)F)cc1)N1CCC(n2c(-c3ccoc3)nc3cccnc32)C1 (centres undefined) | 827
Cc1cc(C(F)F)n2nc(C(=O)Nc3ccc(F)cc3C)nc2n1 | 811
COc1ccc(-c2ccnc3ncnn23)c(F)c1 | 681
